Results taken from paper PMC11487561 (ACS Chemical Neuroscience, 2024).

Key:
[1] = target: T1, CYP 2C9 (Homo sapiens, UniProt P11712); assay: P450 inhibition in pooled human liver microsomes; type: in vitro ADME; conditions: pooled HLM, NADPH, CYP-specific probe substrates
T1 construct: from tissue; host or cells: pooled human liver microsomes (according to the earlier reading)

[2] = target: T2, hKv1.5 (Homo sapiens, UniProt P22460); assay: Cardiac Ion Channel Panel – Charles River (QPatch HT patch clamp); type: cell-based
T2 construct: Charles River Laboratories
Method: page 17: Table S3. Cardiac Ion Channel Panel - Charles River Laboratories for VU6016235 Ion Channel Concentration Mean % Standard Standard n (μM) Inhibition Deviation Error hCav1.2 10 13.9 8.9 5.1 3 hCav3.2 10 6.7 2.7 1.4 4 hHCN2 10 2.6 1.9 1.1 3 hERG 10 10.9 0.9 0.4 4 hKv1.5 10 1.3 1.8 0.9 4 […] 10 4.1 5.6 2.8 4 hKv1.3 10 9 2.9 1.7 3 hNav1.5 (Tonic) 10 5.8 0.6 0.4 3 […] (Phasic) The in vitro effects of VU6016235 were evaluated at room temperature using the QPatch HT® (Sophion Bioscience A/S, Denmark), an automatic parallel patch clamp system. VU6016235 was evaluated at a concentration of 10 μM and tested in at least 3 cells (n ≥ 3). The duration of exposure to each test article concentration was at least 5 minutes. Rat Amphetamine-Induced Hyperlocomotion (AHL) Protocol Male Harlan Sprague Dawley rats with a mean body weight of 240 g (range 221-264 g) were tested in SmartFrame Open Field locomotor activity test chambers to automatically record locomotor activity. All […] for an additional 30 min with either vehicle or a dose of VU6016235 or the comparator M 4 PAM […] Next, rats were injected subcutaneously with vehicle or a dose of 0.75 mg/kg amphetamine and then monitored for an additional 60 min. Changes in locomotor activity were recorded for a total of 120 min. Locomotor data were expressed as the number of photobeam breaks/5 min intervals across the 120-min test session or as the total ambulation, calculated as sum of photobeam beam breaks from the time of amphetamine administration (60 min) until the end of the study (120 min). Time course data were analyzed by two-way ANOVA with main effects of treatment and time; changes in total ambulation were analyzed by one-way ANOVA followed by Dunnett's post hoc test (GraphPad Prism 7 [GraphPad Software, San Diego, CA]). For all tests, α ≤ 0.05 was considered to represent statistical significance. Finally, percent reversal data were calculated in Microsoft Excel using the following formula: Percent Reversal = 100 - {[(total ambulation in individual animal from t = 60 to t = 120) / (mean total ambulation S17

[3] = target: T3, Adenosine A1 (Homo sapiens, UniProt P30542); assay: Lead Profiling Screen – Eurofins Panlabs; type: binding; conditions: read-out: % inh at 10 μM
T3 construct: Eurofins Panlabs

[4] = target: T4, Adenosine A2A (Homo sapiens, UniProt P29274); assay: Lead Profiling Screen – Eurofins Panlabs; type: binding; conditions: read-out: % inh at 10 μM
T4 construct: Eurofins Panlabs

[5] = target: T5, Adenosine A3 (Homo sapiens, UniProt P0DMS8); assay: Lead Profiling Screen – Eurofins Panlabs; type: binding; conditions: read-out: % inh at 10 μM
T5 construct: Eurofins Panlabs
T5 sequence (P0DMS8 whole entry): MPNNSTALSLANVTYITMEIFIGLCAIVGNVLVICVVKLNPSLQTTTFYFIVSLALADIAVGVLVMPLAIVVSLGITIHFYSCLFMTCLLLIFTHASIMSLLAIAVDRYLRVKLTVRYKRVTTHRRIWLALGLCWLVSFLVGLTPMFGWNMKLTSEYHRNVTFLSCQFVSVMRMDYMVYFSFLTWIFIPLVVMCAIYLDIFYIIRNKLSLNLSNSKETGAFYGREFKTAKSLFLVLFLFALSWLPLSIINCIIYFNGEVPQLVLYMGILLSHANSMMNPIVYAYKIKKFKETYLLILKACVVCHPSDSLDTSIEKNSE

[6] = target: T6, Adrenergic α1B (Rattus norvegicus, UniProt P15823); assay: Lead Profiling Screen – Eurofins Panlabs; type: binding; conditions: read-out: % inh at 10 μM
T6 construct: Eurofins Panlabs (contract screen)
T6 sequence (P15823 whole entry): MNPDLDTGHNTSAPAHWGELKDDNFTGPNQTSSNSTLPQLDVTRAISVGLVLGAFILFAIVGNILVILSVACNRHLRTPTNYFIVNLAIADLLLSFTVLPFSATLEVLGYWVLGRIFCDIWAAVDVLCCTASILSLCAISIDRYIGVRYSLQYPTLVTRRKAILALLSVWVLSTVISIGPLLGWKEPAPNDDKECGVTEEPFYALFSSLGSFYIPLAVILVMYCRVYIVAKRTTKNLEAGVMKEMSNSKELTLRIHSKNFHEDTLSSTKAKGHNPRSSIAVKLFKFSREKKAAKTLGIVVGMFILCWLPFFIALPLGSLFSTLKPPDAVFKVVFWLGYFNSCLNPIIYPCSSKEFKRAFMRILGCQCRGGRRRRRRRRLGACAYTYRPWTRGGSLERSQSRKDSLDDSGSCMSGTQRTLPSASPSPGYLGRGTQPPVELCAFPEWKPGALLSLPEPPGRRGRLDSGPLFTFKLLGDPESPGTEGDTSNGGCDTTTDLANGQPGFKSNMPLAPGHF

[7] = target: T7, Adrenergic α1D (Homo sapiens, UniProt P25100); assay: Lead Profiling Screen – Eurofins Panlabs; type: binding; conditions: read-out: % inh at 10 μM
T7 construct: Eurofins Panlabs (contract screen)
T7 sequence (P25100 whole entry): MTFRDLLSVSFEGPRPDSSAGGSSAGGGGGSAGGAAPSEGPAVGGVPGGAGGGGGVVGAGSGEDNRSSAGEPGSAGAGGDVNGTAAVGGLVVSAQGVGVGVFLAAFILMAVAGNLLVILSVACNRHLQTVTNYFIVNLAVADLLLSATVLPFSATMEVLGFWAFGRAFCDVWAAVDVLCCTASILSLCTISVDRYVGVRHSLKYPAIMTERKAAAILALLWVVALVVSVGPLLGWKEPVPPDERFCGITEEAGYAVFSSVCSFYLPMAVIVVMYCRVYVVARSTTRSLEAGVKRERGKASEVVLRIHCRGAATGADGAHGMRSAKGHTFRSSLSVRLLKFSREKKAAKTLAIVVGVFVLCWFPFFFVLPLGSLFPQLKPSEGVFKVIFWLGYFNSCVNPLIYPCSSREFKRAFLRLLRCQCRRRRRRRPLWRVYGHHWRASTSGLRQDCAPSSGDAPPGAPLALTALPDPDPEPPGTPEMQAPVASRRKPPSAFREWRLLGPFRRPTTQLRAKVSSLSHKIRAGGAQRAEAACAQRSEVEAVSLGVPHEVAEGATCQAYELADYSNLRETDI

[8] = target: T8, Adrenergic α2A (Homo sapiens, UniProt P08913); assay: Lead Profiling Screen – Eurofins Panlabs; type: binding; conditions: read-out: % inh at 10 μM
T8 construct: Eurofins Panlabs (contract screen)

[9] = tested on: Androgen (Testosterone); assay: Lead Profiling Screen – Eurofins Panlabs; type: binding, human
[10] = target: T9, Bradykinin B1 (Homo sapiens, UniProt P46663); assay: Lead Profiling Screen – Eurofins Panlabs; type: binding; conditions: read-out: % inh at 10 μM
T9 construct: Eurofins Panlabs (contract screen)
T9 sequence (P46663 whole entry): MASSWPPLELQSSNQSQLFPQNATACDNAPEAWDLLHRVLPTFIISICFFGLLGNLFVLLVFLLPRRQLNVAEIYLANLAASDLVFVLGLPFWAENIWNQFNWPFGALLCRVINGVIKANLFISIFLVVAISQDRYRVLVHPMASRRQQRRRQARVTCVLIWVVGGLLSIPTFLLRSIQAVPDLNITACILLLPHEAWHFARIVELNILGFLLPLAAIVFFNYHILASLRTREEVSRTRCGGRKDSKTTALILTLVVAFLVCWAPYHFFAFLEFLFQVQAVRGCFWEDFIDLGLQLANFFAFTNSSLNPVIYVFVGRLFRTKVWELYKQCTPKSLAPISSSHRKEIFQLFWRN

[11] = tested on: Calcium Channel L-Type, Dihydropyridine; assay: Lead Profiling Screen – Eurofins Panlabs; type: binding, rat
[12] = target: T10, Dopamine D1 (Homo sapiens, UniProt P21728); assay: Lead Profiling Screen – Eurofins Panlabs; type: binding; conditions: read-out: % inh at 10 μM
T10 construct: Eurofins Panlabs (contract screen)
T10 sequence (P21728 whole entry): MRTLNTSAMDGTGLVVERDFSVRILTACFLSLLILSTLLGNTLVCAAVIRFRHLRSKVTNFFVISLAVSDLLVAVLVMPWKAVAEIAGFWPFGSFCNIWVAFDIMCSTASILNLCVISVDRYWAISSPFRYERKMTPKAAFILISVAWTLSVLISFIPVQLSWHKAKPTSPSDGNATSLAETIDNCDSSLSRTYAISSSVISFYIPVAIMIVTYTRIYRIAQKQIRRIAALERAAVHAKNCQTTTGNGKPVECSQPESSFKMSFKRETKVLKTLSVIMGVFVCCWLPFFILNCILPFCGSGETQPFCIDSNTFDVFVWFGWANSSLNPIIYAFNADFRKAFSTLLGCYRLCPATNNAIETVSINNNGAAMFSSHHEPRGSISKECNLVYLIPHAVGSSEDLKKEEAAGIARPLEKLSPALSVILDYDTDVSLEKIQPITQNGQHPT

[13] = target: T11, Dopamine D2S (Homo sapiens, UniProt P14416); assay: Lead Profiling Screen – Eurofins Panlabs; type: binding; conditions: read-out: % inh at 10 μM
T11 construct: Eurofins Panlabs (contract screen)

[14] = tested on: Dopamine D4.2; assay: Lead Profiling Screen – Eurofins Panlabs; type: binding, human
[15] = target: T12, Estrogen ERα (Homo sapiens, UniProt P03372); assay: Lead Profiling Screen – Eurofins Panlabs; type: binding; conditions: read-out: % inh at 10 μM
T12 construct: Eurofins Panlabs (contract screen)

[16] = tested on: GABAA, Muscimol, Central; assay: Lead Profiling Screen – Eurofins Panlabs; type: binding, rat
[17] = tested on: Glutamate, Kainate; assay: Lead Profiling Screen – Eurofins Panlabs; type: binding, rat
[18] = tested on: Glutamate, NMDA, Phencyclidine; assay: Lead Profiling Screen – Eurofins Panlabs; type: binding, rat
[19] = target: Histamine H2 (Homo sapiens, UniProt P25021); assay: Lead Profiling Screen – Eurofins Panlabs; type: binding; conditions: read-out: % inh at 10 μM
Histamine H2, sequence (P25021 whole entry): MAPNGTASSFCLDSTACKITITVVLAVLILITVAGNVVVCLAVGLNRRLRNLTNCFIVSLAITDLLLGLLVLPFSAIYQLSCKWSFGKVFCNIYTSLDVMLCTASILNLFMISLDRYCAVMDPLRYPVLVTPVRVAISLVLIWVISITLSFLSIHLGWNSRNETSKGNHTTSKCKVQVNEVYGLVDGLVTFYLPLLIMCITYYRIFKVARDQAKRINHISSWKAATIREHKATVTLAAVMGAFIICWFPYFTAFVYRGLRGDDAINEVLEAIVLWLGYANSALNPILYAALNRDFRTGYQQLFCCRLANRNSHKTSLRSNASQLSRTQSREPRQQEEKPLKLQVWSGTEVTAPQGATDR

[20] = target: Muscarinic M1 (Homo sapiens, UniProt P11229); assay: Lead Profiling Screen – Eurofins Panlabs; type: binding; conditions: read-out: % inh at 10 μM
Muscarinic M1, sequence (P11229 whole entry): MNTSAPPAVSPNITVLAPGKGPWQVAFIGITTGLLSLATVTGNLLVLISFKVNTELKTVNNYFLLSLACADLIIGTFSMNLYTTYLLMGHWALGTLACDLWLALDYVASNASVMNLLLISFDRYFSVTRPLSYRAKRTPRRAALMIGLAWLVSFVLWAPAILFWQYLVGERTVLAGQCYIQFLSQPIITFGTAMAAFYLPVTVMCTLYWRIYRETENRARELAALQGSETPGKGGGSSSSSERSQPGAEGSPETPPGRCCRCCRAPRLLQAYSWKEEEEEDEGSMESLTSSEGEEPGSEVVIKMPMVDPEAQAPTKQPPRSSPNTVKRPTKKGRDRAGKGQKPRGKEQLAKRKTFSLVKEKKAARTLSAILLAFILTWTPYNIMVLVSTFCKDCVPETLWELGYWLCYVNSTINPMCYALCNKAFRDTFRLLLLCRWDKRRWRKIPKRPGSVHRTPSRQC

[21] = target: Neuropeptide Y Y2 (Homo sapiens, UniProt P49146); assay: Lead Profiling Screen – Eurofins Panlabs; type: binding; conditions: read-out: % inh at 10 μM
[22] = tested on: Nicotinic Acetylcholine; assay: Lead Profiling Screen – Eurofins Panlabs; type: binding, human
[23] = target: Opiate κ (OP2, KOP) (Homo sapiens, UniProt P41145); assay: Lead Profiling Screen – Eurofins Panlabs; type: binding; conditions: read-out: % inh at 10 μM
[24] = tested on: Phorbol Ester; assay: Lead Profiling Screen – Eurofins Panlabs; type: binding, mouse
[25] = target: Potassium Channel [KATP] (Cricetus cricetus, UniProt Q09427); assay: Lead Profiling Screen – Eurofins Panlabs; type: binding, hamster; conditions: read-out: % inh at 10 μM
[26] = tested on: Rolipram; assay: Lead Profiling Screen – Eurofins Panlabs; type: binding, rat
[27] = target: Serotonin (5-Hydroxytryptamine) 5-HT3 (Homo sapiens, UniProt P46098); assay: Lead Profiling Screen – Eurofins Panlabs; type: binding; conditions: read-out: % inh at 10 μM
Serotonin (5-Hydroxytryptamine) 5-HT3, sequence (P46098 24-478): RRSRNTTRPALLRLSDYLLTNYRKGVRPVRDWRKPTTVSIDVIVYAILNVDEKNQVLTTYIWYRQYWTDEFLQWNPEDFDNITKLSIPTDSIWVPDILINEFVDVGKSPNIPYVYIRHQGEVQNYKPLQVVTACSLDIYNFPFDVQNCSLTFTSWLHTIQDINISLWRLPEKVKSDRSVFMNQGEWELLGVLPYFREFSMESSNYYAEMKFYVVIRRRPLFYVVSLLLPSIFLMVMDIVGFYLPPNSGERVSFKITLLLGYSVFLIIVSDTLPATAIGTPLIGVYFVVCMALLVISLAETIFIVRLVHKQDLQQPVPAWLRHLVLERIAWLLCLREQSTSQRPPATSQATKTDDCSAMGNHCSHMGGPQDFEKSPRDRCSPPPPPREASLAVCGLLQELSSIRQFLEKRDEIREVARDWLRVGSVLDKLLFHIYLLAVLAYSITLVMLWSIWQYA

[28] = target: Sigma σ1 (Homo sapiens, UniProt Q99720); assay: Lead Profiling Screen – Eurofins Panlabs; type: binding; conditions: read-out: % inh at 10 μM
Sigma σ1, sequence (Q99720 whole entry): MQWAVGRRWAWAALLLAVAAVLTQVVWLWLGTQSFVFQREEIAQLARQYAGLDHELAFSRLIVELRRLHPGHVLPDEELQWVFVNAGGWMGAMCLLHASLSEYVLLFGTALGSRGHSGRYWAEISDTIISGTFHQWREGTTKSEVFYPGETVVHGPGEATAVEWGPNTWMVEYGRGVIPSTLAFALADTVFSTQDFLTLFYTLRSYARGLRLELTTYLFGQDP

[29] = tested on: Sodium Channel, Site 2; assay: Lead Profiling Screen – Eurofins Panlabs; type: binding, rat
[30] = tested on: Thyroid Hormone; assay: Lead Profiling Screen – Eurofins Panlabs; type: binding, rat
[31] = target: Transporter, Serotonin (5-Hydroxytryptamine) (SERT) (Homo sapiens, UniProt P31645); assay: Lead Profiling Screen – Eurofins Panlabs; type: binding; conditions: read-out: % inh at 10 μM
Transporter, Serotonin (5-Hydroxytryptamine) (SERT), sequence (P31645 whole entry): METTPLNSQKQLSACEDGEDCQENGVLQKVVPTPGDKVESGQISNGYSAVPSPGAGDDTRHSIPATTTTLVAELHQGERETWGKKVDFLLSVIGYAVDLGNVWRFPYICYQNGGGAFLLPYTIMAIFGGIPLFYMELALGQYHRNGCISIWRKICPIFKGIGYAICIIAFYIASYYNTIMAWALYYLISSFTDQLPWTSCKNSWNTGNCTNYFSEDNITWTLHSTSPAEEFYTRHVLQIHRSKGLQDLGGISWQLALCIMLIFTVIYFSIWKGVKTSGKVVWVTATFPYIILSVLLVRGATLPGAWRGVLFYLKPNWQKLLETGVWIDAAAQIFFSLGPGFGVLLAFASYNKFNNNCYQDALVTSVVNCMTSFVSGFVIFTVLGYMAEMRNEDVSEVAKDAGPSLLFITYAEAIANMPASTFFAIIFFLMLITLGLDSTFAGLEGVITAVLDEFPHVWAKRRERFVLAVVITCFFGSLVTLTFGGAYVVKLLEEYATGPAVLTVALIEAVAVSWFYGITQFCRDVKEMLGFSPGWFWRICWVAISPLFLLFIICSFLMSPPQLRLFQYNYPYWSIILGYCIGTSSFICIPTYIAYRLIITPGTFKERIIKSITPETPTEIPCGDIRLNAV

T1 sequence (P11712 whole entry): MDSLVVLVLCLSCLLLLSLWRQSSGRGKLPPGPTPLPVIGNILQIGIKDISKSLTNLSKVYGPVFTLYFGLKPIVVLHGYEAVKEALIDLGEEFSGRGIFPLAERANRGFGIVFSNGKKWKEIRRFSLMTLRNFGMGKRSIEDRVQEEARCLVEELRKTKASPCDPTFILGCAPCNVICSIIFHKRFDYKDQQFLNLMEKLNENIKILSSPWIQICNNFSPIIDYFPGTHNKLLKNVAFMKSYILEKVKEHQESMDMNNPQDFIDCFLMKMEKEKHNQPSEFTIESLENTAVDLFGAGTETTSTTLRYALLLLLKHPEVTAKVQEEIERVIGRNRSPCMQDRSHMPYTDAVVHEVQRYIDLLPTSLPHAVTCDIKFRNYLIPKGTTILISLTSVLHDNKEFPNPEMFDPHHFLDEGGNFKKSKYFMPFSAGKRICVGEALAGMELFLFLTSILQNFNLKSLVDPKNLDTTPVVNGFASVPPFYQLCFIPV

## Cc1nc(C)c2c(n1)sc1c(NCc3ccc(C(C)(C)O)cc3)nccc12 [22g]
[1]
  IC50: 17 µM
[2]
  inhibition at 10 µM: 1.3%
[3]
  inhibition at 10 µM: 6%
[4]
  inhibition at 10 µM: 28%
[5]
  inhibition at 10 µM: 22%
[6]
  inhibition at 10 µM: 7%
[7]
  inhibition at 10 µM: 5%
[8]
  inhibition at 10 µM: -9%
[9]
  % inh at 10 μM: 5%
[10]
  inhibition at 10 µM: -1%
[11]
  % inh at 10 μM: -1%
[12]
  inhibition at 10 µM: 21%
[13]
  inhibition at 10 µM: -4%
[14]
  % inh at 10 μM: 4%
[15]
  inhibition at 10 µM: -8%
[16]
  % inh at 10 μM: 1%
[17]
  % inh at 10 μM: -8%
[18]
  % inh at 10 μM: -2%
[19]
  inhibition at 10 µM: -17%
[20]
  inhibition at 10 µM: 0%
[21]
  inhibition at 10 µM: 12%
[22]
  % inh at 10 μM: -2%
[23]
  inhibition at 10 µM: 4%
[24]
  % inh at 10 μM: -1%
[25]
  inhibition at 10 µM: 4%
[26]
  % inh at 10 μM: 5%
[27]
  inhibition at 10 µM: -20%
[28]
  inhibition at 10 µM: 3%
[29]
  % inh at 10 μM: 3%
[30]
  % inh at 10 μM: 1%
[31]
  inhibition at 10 µM: 1%
